The values below come from US20240174641A1, “HETEROCYCLIC COMPOUNDS CAPABLE OF […]” (Boehringer Ingelheim International GmbH, priority 2022, published 2024).

One assay concerns the target STING (Canis lupus familiaris, UniProt A0A8I3MH52). As to the kind of experiment: Dog whole blood (dWB) assay, IFNb secretion by ELISA. The format is cell-based. The conditions noted are these: canine Interferon-beta (IFNb) ELISA, 4 h incubation at 37° C. The procedure:
For the detection of STING activation in physiological environment dog whole blood (dWB) was stimulated by the cyclic dinucleotide cGAMP or a test compound. Pathway activity was monitored by measuring the IFNb production.
Compounds were delivered as 10 mM DMSO solution, diluted and transferred by using an Echo acoustic dispenser to the 384 well assay plate (Greiner #781182), pre-filled with 10 μl 1×HBSS in each well (10×HBSS (+Ca/+Mg), #14065-049, Gibco). Typically, 8 concentrations were used with the highest concentration at 10 μM in the final assay volume followed by approximately 1:4 dilution steps. DMSO concentration was set to 0.1% in the final assay volume. The 384-well assay plate contained 20 test compounds and DMSO in control and cGAMP standard wells. The dog whole blood was collected as Na-Citrate blood (e.g., 3.8% in Monovettes from Sarstedt) and kept at 4° C. overnight until use in the assay. 80 μl of the whole blood samples were transferred to each well of the 384-well assay plates filled with compound/1×HBSS. Blood plates were kept at room temperature for 60 minutes and continuous shaking with 450 rpm, covered with the lid, but not sealed. A 10×cGAMP assay solution was diluted from a 2 mM stock solution in 1×HBSS immediately before use at room temperature. 10 μl of the 10×cGAMP/HBSS were added to the high control wells, whereas HBSS only was added to all compound and low control wells. After covering assay plates with the lid, blood plates were kept for a 4 h incubation at 37° C. in the incubator, without shaking. For the detection of IFNb in dog plasma the ELISA Kit for Canine Interferon Beta (Biotrend #SEA222Ca) was used. Whole blood assay plates were centrifuged at 1000 g for 10 minutes at 8° C. […] was transferred with a 96 well pipetting robotics from the 384 well whole blood plate to the corresponding 96 well ELISA plate, pre-filled with 60 μl assay diluent in each well. Plates were sealed with microplate seals and kept at 4° C. overnight again. ELISA plates were brought to room temperature, followed by a 1 h incubation at 37° C. in the incubator. Detection Reagent A working solution was prepared by diluting Detection Reagent A 1:100 in Assay Reagent A. Liquid was then removed from the 96 well ELISA plate to add 100 μL Detection Reagent A working solution to each well. ELISA plates were covered with the plate sealer and incubated for 1 hour at 37° C. in the incubator. The 1× Wash buffer was prepared by diluting the 30× Wash Buffer Concentrate in H2O. Detection Reagent B working solution was prepared by diluting Detection Reagent B 1:100 in Assay Reagent B. The ELISA plates were washed three times with 350 μl wash buffer and afterwards inverted and blotted against absorbent paper to remove any liquid. 100 μL of Detection Reagent B working solution was added to each well of the ELISA plates, which are then covered with the plate sealer and incubated for 30 minutes at 37° C. in the incubator. After incubation the ELISA assay plates were washed five times with 350 μl wash buffer and were again inverted and blotted against absorbent paper to remove any remaining liquid. 90 μL of TMB Substrate was added to each well of the ELISA plates, which were then covered with the plate sealer and incubated for 15 minutes at 37° C. in the incubator. The reaction was stopped by adding 50 μL stop solution and absorbance was measured at 450 nm immediately.
For data evaluation and calculation, % control calculation of each well was based on the mean of high (cGAMP stimulated control) and mean of low (unstimulated control) controls by using the following standard 4 parameter logistic regression formula:
[y=(a−d)/(1+(x/c)^b)+d] • a=low value, • d=high value, • x=conc M, • c=EC50 M, • b=slope. Dog Liver Microsome (dLM) Assay
Background: An ELISA detects its analyte on a solid surface through an enzyme-linked reagent.

The next assay deals with dog STING (dSTING). Kind of assay: Dog differential scanning fluorimetry (DSF) assay, thermal shift of dog STING protein. The format is binding. The conditions noted are these: DSF (dDSF); 100 μM compound, 3 μM dog STING protein; Tm with ligand minus Tm of protein alone. An excerpt:
The protein used for the biophysical experiments was a recombinant dog STING protein comprising its cytosolic cGAMP binding ectodomain. A codon optimized DNA sequence (for expression in Escherichia coli) encoding amino acid residues 149 to 375 of dog STING was synthesized by GeneArt (Regensburg, Germany) and inserted into a pET17b E. coli expression vector. The protein construct encodes an N-terminal 8×His-tag followed by tobacco etch virus protease (TEV) cleavage site and the above STING gene sequence. The resulting protein sequence for the used dog STING protein (SEQ ID No. 1) is listed below:
For expression of the above recombinant dog STING, the construct was transformed into E. coli BL21 DE3 strain and grown in shake flasks in LB-medium at 15° C. Expression was induced by addition of isopropyl β-D-1-thiogalactopyranoside to a final concentration of 1 mM and cultures shaken overnight. Cell pellets were centrifuged and stored at −70° C. until further use. Protein was purified by cell thawing in lysis buffer (20 mM TRIS-HCl, pH 8, 500 mM NaCl, 1 mM DTT, 0.5 mg/ml lysozyme, Complete Protease Inhibitor (Roche) and DNase (Roche)), followed by metal affinity purification using Ni-NTA resins and elution buffer consisting of 20 mM TRIS-HCl, pH 8, 500 mM NaCl, 1 mM DTT, 300 mM imidazole. Cleavage of the His-Tag using TEV-protease took place during dialysis in size exclusion buffer (20 mM TRIS-HCl, pH 8, 100 mM NaCl, 1 mM DTT) over night. To further purify the target protein a reverse Nickel affinity column was used and the flow through was applied to a size exclusion chromatography. The peak fraction was collected and concentrated to 5 mg/mL.
Dye fluorescence is quenched in aqueous environment and increases upon association of the dye with the hydrophobic parts of the unfolding protein. […] The inflection point of the curve represents the “melting” temperature of the protein (Tm) which is calculated numerically using the Boltzmann equation.
The thermal stability of the dog STING protein was measured in assay buffer containing 20 mM Tris, 150 mM NaCl at pH7.5. The assay uses 384-Well qPCR Plates (Catalog #781358, BRAND), Microseal® ‘B’ Adhesive Seals for PCR Plates (Catalog #MSB-1001, BIO-RAD) and was run on a CFX384 Real-Time System (Bio-Rad). A DMSO stock solution of SYPRO orange (SIGMA 55692-500UL) was prepared. Compound stock solutions (10 mM in DMSO) were diluted 1:2 in DMSO to an intermediate compound concentration of 5 mM and then further diluted 1:40 in assay buffer resulting in a compound concentration of 125 μM and 2.5% DMSO. Fluorescent dye stock solution (5000×SYPRO Orange) was then mixed with target protein and buffer to a concentration of 15 μM Protein and 25×SYPRO Orange. 2 μl of this protein-dye-mixture was added to 8 μl compound solution. Final volume was 10 μL. 3-6 well positions were used as negative control (protein with 2% DMSO). The plates were prepared for duplicate measurement and centrifuged for 2 min at 1000 g. In the measurement, 160 cycles of 0.5° C. were used (temperature ramp 15 s/cycle, 15° C. to 95° C.).
Final Assay concentrations for compound characterization were 100 μM compound, 3 μM target protein, 5×SYPRO Orange, and 2% DMSO in 10 μl. All dispensing steps were performed using a HamiltonStar pipetting robot (Hamilton).
Dissociation curves were processed in Bio-Rad CFX Manager. Peak type was set to “negative”. Compound codes for screen were assigned in the plate layout.
Two replicates of TM measurements were averaged, and the standard deviation was calculated. In cases of SD>1.5° C. the measurement was repeated.
The melting point (Tm) obtained for STING protein alone was subtracted from T obtained for protein incubated with ligand to generate ΔTm values.

Chain of STING (A0A8I3MH52 1-374): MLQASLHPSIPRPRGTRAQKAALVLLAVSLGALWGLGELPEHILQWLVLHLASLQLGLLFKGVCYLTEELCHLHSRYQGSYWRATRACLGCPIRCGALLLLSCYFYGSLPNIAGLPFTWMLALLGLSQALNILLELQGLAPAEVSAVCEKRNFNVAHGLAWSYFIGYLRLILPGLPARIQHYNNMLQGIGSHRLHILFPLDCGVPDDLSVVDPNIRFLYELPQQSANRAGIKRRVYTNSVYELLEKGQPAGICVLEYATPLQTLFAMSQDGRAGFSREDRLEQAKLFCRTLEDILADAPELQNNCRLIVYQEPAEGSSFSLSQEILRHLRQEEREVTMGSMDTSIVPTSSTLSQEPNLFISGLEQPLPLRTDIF

As a reminder, the EC50 is the midpoint of the concentration-response curve. Low readings indicate a more potent agent, high ones a less potent agent. Regarding `Cc1cccc2c(-c3cccc4nn(C)c(F)c34)nn(-c3ccc(N4CCOC(CC(=O)O)C4)nc3)c12` (single isomer, unassigned) [Example 72-3], the EC50 on STING turned out to be 5230 nM. In the assay with dog STING (dSTING), the “Delta TM” value was found to be 28.5 °C.

On to `CC(=O)N1CCN(c2ccc(-n3nc(-c4c(Cl)ccc5nn(C)cc45)c4cccc(C)c43)cn2)CC1` [Example 78], for which the 50% effective concentration (EC50) on STING stood at 817 nM. The “Delta TM” value in the assay on dog STING (dSTING) is 18.4 °C.

At STING, `Cc1cccc2c(-c3c(F)ccc4nn(C)cc34)nn(-c3ccc(N4C[C@@H]5C[C@H]4C[C@H]5C(=O)O)nc3)c12` [Example 27-1, (1S,4R,5R)-2-(5-{5″-fluoro-2″,7-dimethyl-1H,2″H-[3,4″-biindazol]-1-yl}pyridin-2-yl)-2-azabicyclo[2.2.1]heptane-5-carboxylic acid] had an EC50 of 211 nM. Further, the “Delta TM” value with dog STING (dSTING) was determined as 36.9 °C.

In the case of `Cc1cccc2c(-c3c(F)cc(F)c4nn(C)cc34)nn(-c3ccc(N4CCC(C(=O)O)CC4)nc3)c12` [Example 44, 1-(5-{5″,7″-difluoro-2″,7-dimethyl-1H,2″H-[3,4″-biindazol]-1-yl}pyridin-2-yl)piperidine-4-carboxylic acid], on STING, the EC50 is 388 nM. Besides, the “Delta TM” value in the assay with dog STING (dSTING) was determined as 34.5 °C.

`Cc1cc(F)cc2c(-c3c(F)ccc4nn(C)cc34)nn(-c3ccc(N4CCC(C(=O)O)CC4)nc3)c12` [Example 62, 1-(5-{5,5″-difluoro-2″,7-dimethyl-1H,2″H-[3,4″-biindazol]-1-yl}pyridin-2-yl)piperidine-4-carboxylic acid] returned an EC50 on STING of 295 nM. Also, the “Delta TM” value with dog STING (dSTING) is 38.0 °C.

Turning to `CC(=O)N1C[C@H]2C[C@@H]1CN2c1ccc(-n2nc(-c3cccc4nn(C)c(F)c34)c3cccc(C)c32)cn1` [Example 22, 1-[(1R,4R)-5-(5-{3″-fluoro-2″,7-dimethyl-1H,2″H-[3,4″-biindazol]-1-yl}pyridin-2-yl)-2,5-diazabicyclo[2.2.1]heptan-- 2-yl]ethan1-one], the EC50 on STING was determined as 244 nM. For the same compound, the “Delta TM” value in the assay on dog STING (dSTING) was 30.4 °C.

For the compound `Cc1c(F)ccc2c(-c3c(F)ccc4nn(C)cc34)nn(-c3ccc(N4CCC(C(=O)O)CC4)nc3)c12` [Example 65, 1-(5-{5″,6-difluoro-2″,7-dimethyl-1H,2″H-[3,4″-biindazol]-1-yl}pyridin-2-yl)piperidine-4-carboxylic acid], a half-maximal response on STING (EC50) required 330 nM. Further, in the assay on dog STING (dSTING), the “Delta TM” value turned out to be 36.5 °C.

`Cc1cccc2c(-c3cccc4nn(C)c(F)c34)nn(-c3ccc(N4CCC(C(=O)O)CC4)nc3)c12` [Example 2, 1-(5-{3″-Fluoro-2″,7-dimethyl-1H,2″H-[3,4″-biindazol]-1-yl}pyridin-2-yl)piperidine-4-carboxylic acid] registered an EC50 at STING of 236 nM. Also, in the assay on dog STING (dSTING), the “Delta TM” value stood at 34.5 °C.

Take `Cc1cc(F)cc2c(-c3c(F)ccc4nn(C)cc34)nn(-c3ccc(N4C[C@@H]5[C@H](C4)[C@H]5C(=O)O)nc3)c12` [Example 14, (1R,5S,6R)-3-(5-{5,5″-Difluoro-2″,7-dimethyl-1H,2″H-[3,4″-biindazol]-1-yl}pyridin-2-yl)-3-azabicyclo[3.1.0]hexane-6-carboxylic acid]: the EC50 on STING amounted to 391 nM. Besides, in the assay with dog STING (dSTING), the “Delta TM” value stood at 38.0 °C.

For `Cc1cccc2c(-c3c(F)cc(F)c4nn(C)cc34)nn(-c3ccc(N4C[C@H]5C[C@@H]4C[C@@H]5C(=O)O)nc3)c12` (single isomer, unassigned) [Example 47-2], the EC50 on STING is 200 nM. The “Delta TM” value in the assay on dog STING (dSTING) was 35.5 °C.

As to `Cc1cccc2c(-c3c(F)cc(F)c4nn(C)cc34)nn(-c3ccc(N4CC[C@@H](CC(=O)O)C4)nc3)c12` [Example 45, 2-[(3S)-1-(5-{5″,7″-difluoro-2″,7-dimethyl-1H,2″H-[3,4″-biindazol]-1-yl}pyridin-2-yl)pyrrolidin-3-yl]acetic acid], at STING, the EC50 came out at 601 nM. The “Delta TM” value in the assay with dog STING (dSTING) is 33.0 °C.

On STING, `Cc1cccc2c(-c3c(F)ccc4nn(C)cc34)nn(-c3ccc(N4CC[C@@H](CC(=O)O)C4)nc3)c12` [Example 24, 2-[(3S)-1-(5-{5″-fluoro-2″,7-dimethyl-1H,2″H-[3,4″-biindazol]-1-yl}pyridin-2-yl)pyrrolidin-3-yl]acetic acid] had an EC50 of 270 nM. Also, the “Delta TM” value with dog STING (dSTING) stood at 35.5 °C.

Compound `CC(=O)N1CCN(c2ccc(-n3nc(-c4cccc5nn(C)c(F)c45)c4ccc(F)c(C)c43)cn2)CC1` [Example 61, 1-[4-(5-{3″,6-difluoro-2″,7-dimethyl-1H,2″H-[3,4″-biindazol]-1-yl}pyridin-2-yl)piperazin-1-yl]ethan-1-one] had an EC50 on STING of 245 nM. Besides, in the assay on dog STING (dSTING), the “Delta TM” value turned out to be 30.8 °C.

`Cc1cccc2c(-c3c(F)ccc4nn(C)cc34)nn(-c3ccc(N4CCC(C(=O)O)CC4)nc3)c12` [Example 6, 1-(5-{5″-Fluoro-2″,7-dimethyl-1H,2″H-[3,4″-biindazol]-1-yl}pyridin-2-yl)piperidine-4-carboxylic acid] yielded an EC50 on STING of 243 nM. Also, in the assay on dog STING (dSTING), the “Delta TM” value was determined as 35.5 °C.
